# Data as given in article PMC7799360, “Reprogramming immunosuppressive myeloid cells facilitates immunotherapy for colorectal cancer” (EMBO Molecular Medicine, 2020).
# Where two headings read alike, the source gives them in different places.
# Key:
# human EP2 = biological target: T1, human EP2 (Homo sapiens, UniProt P43116); test: PGE2-induced calcium flux assay in CHO-Gα16 cells; assay type: cell-based
# T1 construct: host or cells: CHO-Gα16
# ADORA3 = biological target: T2, ADORA3 (Homo sapiens, UniProt P0DMS8); test: LANCE Ultra cAMP assay; assay type: cell-based
# T2 construct: Pharmaron (Beijing, China) performed the assay
# T2 sequence (P0DMS8 whole entry, species assumed): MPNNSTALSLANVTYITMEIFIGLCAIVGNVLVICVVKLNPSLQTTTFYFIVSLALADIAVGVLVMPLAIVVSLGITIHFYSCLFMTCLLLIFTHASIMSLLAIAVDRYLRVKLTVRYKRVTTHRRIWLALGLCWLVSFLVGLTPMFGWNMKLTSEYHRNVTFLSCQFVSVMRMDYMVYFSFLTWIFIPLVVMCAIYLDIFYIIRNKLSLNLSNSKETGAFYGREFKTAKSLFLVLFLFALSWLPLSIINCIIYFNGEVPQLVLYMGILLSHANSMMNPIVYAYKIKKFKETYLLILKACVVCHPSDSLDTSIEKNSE
# ADRA1D = biological target: T3, ADRA1D (Homo sapiens, UniProt P25100); test: GPCR calcium flux assay; assay type: cell-based
# T3 construct: Pharmaron (Beijing, China) performed the assay
# T3 sequence (P25100 whole entry, species assumed): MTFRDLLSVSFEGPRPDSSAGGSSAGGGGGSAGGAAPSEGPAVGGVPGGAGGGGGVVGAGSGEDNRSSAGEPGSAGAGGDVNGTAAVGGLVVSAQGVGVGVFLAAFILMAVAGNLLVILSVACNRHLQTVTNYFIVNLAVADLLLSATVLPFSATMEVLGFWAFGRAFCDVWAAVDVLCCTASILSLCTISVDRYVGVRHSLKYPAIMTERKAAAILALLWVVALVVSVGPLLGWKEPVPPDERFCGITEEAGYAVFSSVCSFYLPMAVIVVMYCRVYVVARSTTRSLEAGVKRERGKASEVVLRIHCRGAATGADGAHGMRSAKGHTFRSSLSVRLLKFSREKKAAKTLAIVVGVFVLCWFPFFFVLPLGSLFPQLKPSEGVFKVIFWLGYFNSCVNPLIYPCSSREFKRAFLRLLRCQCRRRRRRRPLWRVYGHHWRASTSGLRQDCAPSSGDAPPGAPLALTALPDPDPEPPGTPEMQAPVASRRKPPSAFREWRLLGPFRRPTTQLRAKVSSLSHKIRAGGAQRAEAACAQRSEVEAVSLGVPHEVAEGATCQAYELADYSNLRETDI
# ADRB1 = biological target: T4, ADRB1 (Homo sapiens, UniProt P08588); test: GPCR calcium flux assay; assay type: cell-based
# T4 construct: Pharmaron (Beijing, China) performed the assay
# T4 sequence (P08588 whole entry, species assumed): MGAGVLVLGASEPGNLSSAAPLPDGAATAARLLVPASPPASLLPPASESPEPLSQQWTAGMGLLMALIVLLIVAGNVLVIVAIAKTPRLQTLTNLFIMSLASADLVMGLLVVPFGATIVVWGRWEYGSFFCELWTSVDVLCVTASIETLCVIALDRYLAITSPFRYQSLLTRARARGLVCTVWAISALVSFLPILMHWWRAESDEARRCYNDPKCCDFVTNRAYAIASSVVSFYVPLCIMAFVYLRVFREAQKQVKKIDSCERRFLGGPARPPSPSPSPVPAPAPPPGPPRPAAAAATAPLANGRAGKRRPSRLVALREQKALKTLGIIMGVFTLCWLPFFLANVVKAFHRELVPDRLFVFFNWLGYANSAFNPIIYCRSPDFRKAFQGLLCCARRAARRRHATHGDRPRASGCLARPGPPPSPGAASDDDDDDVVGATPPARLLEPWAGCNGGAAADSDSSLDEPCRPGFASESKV
# AVPR1A = biological target: T5, AVPR1A (Homo sapiens, UniProt P37288); test: GPCR calcium flux assay; assay type: cell-based
# T5 construct: Pharmaron (Beijing, China), contract laboratory
# T5 sequence (P37288 whole entry, species assumed): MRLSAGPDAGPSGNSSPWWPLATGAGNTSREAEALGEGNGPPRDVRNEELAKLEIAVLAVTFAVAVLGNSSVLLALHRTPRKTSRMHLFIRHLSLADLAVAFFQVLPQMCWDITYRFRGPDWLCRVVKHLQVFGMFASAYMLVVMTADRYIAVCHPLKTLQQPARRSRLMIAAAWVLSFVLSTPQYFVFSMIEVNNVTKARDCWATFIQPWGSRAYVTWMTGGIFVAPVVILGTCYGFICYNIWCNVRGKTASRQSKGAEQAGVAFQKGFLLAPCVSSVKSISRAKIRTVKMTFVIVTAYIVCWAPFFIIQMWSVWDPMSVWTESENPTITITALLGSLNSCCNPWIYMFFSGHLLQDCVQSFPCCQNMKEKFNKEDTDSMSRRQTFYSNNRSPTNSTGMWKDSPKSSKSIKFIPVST
# BB1 = biological target: T6, BB1 (Homo sapiens, UniProt P28336); test: GPCR calcium flux assay; assay type: cell-based
# T6 construct: Pharmaron (Beijing, China), contract laboratory
# T6 sequence (P28336 whole entry): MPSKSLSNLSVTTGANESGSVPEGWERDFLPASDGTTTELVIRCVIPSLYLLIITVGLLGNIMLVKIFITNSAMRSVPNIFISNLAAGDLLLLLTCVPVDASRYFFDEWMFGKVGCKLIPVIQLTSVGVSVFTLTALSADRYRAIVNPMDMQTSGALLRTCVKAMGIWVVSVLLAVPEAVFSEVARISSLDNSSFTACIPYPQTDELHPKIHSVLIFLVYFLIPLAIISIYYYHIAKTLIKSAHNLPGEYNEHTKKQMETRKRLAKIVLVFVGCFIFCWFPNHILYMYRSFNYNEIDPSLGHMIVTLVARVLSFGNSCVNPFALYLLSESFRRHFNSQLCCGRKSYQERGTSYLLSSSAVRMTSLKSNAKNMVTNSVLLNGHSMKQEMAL
# DRD1 = biological target: T7, DRD1 (Homo sapiens, UniProt P21728); test: GPCR calcium flux assay; assay type: cell-based
# T7 construct: Pharmaron (Beijing, China), contract laboratory
# T7 sequence (P21728 whole entry, species assumed): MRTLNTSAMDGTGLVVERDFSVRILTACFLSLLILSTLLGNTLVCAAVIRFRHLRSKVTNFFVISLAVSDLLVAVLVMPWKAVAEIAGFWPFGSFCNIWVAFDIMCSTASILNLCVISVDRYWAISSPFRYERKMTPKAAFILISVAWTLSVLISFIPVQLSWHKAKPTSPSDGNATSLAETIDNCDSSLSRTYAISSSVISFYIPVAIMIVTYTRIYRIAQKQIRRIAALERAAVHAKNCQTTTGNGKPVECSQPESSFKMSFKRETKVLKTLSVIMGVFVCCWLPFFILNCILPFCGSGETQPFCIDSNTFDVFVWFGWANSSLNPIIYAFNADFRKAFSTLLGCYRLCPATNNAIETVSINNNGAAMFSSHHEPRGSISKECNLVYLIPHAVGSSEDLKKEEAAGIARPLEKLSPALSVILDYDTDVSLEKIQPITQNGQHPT
# HRH1 = biological target: T8, HRH1 (Homo sapiens, UniProt P35367); test: GPCR calcium flux assay; assay type: cell-based
# T8 construct: Pharmaron (Beijing, China), contract laboratory
# OPRD1 = biological target: T9, OPRD1 (Homo sapiens, UniProt P41143); test: GPCR calcium flux assay; assay type: cell-based
# T9 construct: Pharmaron (Beijing, China), contract laboratory
# T9 sequence (P41143 whole entry, species assumed): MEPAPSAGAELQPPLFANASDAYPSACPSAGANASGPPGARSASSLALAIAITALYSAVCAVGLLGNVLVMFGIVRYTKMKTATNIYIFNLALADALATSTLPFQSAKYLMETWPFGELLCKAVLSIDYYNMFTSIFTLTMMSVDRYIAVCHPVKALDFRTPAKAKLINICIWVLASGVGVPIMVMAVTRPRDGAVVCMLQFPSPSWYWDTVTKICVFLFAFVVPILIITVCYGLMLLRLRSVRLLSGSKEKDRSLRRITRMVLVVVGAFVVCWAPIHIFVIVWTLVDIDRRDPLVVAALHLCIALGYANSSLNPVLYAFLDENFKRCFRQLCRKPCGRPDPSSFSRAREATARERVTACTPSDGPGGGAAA
# OPRM1 = biological target: T10, OPRM1 (Homo sapiens, UniProt P35372); test: GPCR calcium flux assay; assay type: cell-based
# T10 construct: Pharmaron (Beijing, China), contract laboratory
# T10 sequence (P35372 whole entry, species assumed): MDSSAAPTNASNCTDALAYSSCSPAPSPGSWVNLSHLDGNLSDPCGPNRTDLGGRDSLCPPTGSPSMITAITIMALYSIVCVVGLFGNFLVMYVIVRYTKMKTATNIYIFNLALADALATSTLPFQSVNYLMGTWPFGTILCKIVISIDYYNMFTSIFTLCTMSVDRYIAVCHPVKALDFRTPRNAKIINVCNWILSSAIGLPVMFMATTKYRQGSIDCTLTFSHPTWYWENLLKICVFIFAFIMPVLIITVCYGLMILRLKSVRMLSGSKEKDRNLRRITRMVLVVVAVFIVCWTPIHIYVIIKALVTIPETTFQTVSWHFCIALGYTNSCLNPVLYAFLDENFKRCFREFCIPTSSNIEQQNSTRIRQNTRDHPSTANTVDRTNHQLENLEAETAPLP
# [1] = Pharmacokinetics in CD1 mice; assay type: in vivo, mouse; conditions: for AUC(0-t): read-out: AUC0-24
# Source text: 5% (v/v) dimethyl sulfoxide ( DMSO), 10% solutol, and 85% β -cyclodextrin) to male CD1 mice (n = 3). Blood samples were collected at 0.08, 0.25, 0.5, 1, 2, 4, 8, and 24 hr after administration. After suitable sample preparation, the concentration of TP -16 in plasma samples was determine d by the Agilent 1290 HPLC system, coupled with a 6460 triple -quadrupole mass spectrometer and an Agilent Jet Stream electrospray ionization (ESI) source (Agilent
# Technologies, USA). Pharmacokinetic parameters were calculated by WinNonlin software version 7.0 based on non -compartmental analysis
# (Pharsight Corporation, Mountain View, USA). […]
# CT26 tumors = test: CT26 subcutaneous syngeneic tumor model in BALB/c mice; assay type: in vivo, mouse
# Experimental: (§1) Syngeneic mouse tumor‐bearing models were established as described previously (Tan et al., 2018). Tumor cells (5 × 10^5 ‐ 2 × 10^6) were suspended in 100 μl PBS and implanted subcutaneously into the flank of mice. Mice were randomized into different treatment groups when tumor volumes reached 100‐200 mm^3. V = L×W^2 × 0.52, where L is the longest diameter, and W is the shortest diameter. Tumor size and body weight were recorded every second or third day. Mouse survival was analyzed using the Kaplan–Meier method.
# (§2) Single agent or combination treatment was designed as follows: TP‐16 (37.5, 75, 150 mg/kg) or celecoxib (100 mg/kg) was formulated in 0.5% carboxymethylcellulose sodium (CMC‐Na, Sangon Biotech, Shanghai, China) and administered via oral gavage daily. In vivo anti‐PD1 antibody (clone RMP1‐14, BioXCell, West Lebanon, NH, USA) and rat IgG2a isotype control (clone 2A3, BioXCell) were diluted in sterile PBS and administered intraperitoneally at a dose of 50 μg twice weekly.
# MC38 tumors = test: MC38 colorectal cancer model in C57BL/6 mice; assay type: in vivo, mouse; conditions: MC38, 75 mg/kg p.o. daily
# Experimental: as §1, §2
# CT26-Luc tumors = test: CT26-Luc orthotopic colorectal cancer mouse model; assay type: in vivo
# HCT116 = test: Cell viability (MTS); assay type: cell-based, human; conditions: HCT116, 100 µM
# Source text: (§3) The murine colon cancer (CT26), murine breast cancer (4T1), and human colon cancer (HCT116, HCT8, HT29, and DLD1) cell lines were obtained from American Type Culture Collection (ATCC). The murine cell lines of melanoma (B16F10), pancreatic cancer (Pan02), and colon cancer (MC38), Chinese hamster ovary (CHO) cell line, and human embryonic kidney cell lines (HEK293 and HEK293T) were purchased from the National Infrastructure of Cell Line Resource (Shanghai, China). Primary human endothelial cells (HUVECs) were kindly provided by Dr. Xinli Wang (Baylor College of Medicine, Houston, TX, USA) and cultured in endothelial cell medium (ScienCell, San Diego, CA, USA) according to the manufacturer’s instructions. The CHO‐Gα16 cell line was established in our previous study and maintained in DMEM/F12 medium containing puromycin (4 μg/ml) (Wu et al., 2018). Cell lines were maintained in vendor recommended growth medium supplemented with 10% FBS (Gibco, Waltham, MA, USA) and 1% penicillin/streptomycin solution (Gibco) at 37°C ins a humidified atmosphere (5% CO2). All cell lines were authenticated using short tandem repeat analysis. All cell lines were confirmed to be mycoplasma‐free by polymerase chain reaction (PCR) analysis. Cell viability was determined using CellTiter 96 ® Aqueous One Solution (Promega, Madison, WI).
# (§4) Appendix Figure S1. […]. The cytotoxicity curves
# (§5) . Mouse cancer cells: CT26
# (§6) . Human colon cancer cells: HCT116 (E),
# (§7) HCT8 (F), HT29 (G) and DLD1 (H). Human normal cell line: HUVECs (I). Cell
# (§8) viability was measured by MTS. Data are presented as mean ± SEM derived
# (§9) from three independent experiments (n=3).
# (§10) (1 picture or pasted object on this page, not shown here)
# HT29 = test: Cell viability (MTS); assay type: cell-based, human; conditions: HT29, 100 µM
# Source text: as §3, §4, §5, §6, §7, §8, §9, §10
# AODRA1 = AODRA1 (Homo sapiens, UniProt P30542); test: LANCE Ultra cAMP assay
# Chain of AODRA1 (P30542 whole entry): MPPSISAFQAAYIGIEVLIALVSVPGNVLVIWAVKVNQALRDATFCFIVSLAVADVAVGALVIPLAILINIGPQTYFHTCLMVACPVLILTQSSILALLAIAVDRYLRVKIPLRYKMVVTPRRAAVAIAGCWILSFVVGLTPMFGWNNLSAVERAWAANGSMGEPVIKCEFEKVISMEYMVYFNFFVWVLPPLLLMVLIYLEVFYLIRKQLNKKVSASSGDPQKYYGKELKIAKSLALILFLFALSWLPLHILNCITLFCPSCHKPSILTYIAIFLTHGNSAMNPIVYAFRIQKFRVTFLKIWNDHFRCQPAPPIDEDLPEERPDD
# CB2 = CB2 (Homo sapiens, UniProt P34972); test: LANCE Ultra cAMP assay
# Chain of CB2 (P34972 whole entry, species assumed): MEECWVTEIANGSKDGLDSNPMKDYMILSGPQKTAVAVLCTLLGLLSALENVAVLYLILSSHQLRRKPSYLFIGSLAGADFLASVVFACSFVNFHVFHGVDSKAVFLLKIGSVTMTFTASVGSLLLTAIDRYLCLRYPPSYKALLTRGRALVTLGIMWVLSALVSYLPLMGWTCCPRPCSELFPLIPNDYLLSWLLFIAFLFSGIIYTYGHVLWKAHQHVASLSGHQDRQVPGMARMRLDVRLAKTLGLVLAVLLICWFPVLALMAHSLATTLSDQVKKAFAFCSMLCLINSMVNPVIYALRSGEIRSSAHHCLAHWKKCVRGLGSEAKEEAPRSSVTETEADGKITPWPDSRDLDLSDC
# HTR1B = HTR1B (Homo sapiens, UniProt P28222); test: LANCE Ultra cAMP assay
# Chain of HTR1B (P28222 whole entry): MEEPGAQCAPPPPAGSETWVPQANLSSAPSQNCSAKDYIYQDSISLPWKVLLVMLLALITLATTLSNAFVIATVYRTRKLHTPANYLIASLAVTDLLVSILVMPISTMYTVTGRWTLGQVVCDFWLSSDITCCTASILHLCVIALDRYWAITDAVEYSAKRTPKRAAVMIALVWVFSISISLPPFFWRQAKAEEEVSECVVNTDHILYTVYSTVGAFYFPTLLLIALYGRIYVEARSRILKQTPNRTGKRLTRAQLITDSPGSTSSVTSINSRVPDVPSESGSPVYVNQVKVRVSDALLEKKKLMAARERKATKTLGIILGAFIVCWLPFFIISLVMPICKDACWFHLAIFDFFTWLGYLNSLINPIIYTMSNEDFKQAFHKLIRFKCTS
# [2] = male, mouse, plasma, iv, I.V. 1 mg/kg
# [3] = male, mouse, plasma, po, P.O. 10 mg/kg
# T1 sequence (P43116 whole entry): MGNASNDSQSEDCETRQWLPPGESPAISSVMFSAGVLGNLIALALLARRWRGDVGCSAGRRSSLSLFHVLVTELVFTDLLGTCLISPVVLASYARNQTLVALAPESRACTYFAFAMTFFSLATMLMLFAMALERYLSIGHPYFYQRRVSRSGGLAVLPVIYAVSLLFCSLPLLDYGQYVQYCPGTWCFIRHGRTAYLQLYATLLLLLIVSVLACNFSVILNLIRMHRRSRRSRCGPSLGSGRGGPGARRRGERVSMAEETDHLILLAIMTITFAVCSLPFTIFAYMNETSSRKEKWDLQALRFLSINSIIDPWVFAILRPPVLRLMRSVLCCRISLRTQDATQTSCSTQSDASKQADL
structure (smiles),measurement,setting,value
C[C@H](NC(=O)c1c(Cc2ccc(F)cc2)sc2c1CCOC2)c1ccc(C(=O)O)cc1 [TP-16],IC50,human EP2,> 10 µM
same,IC50,ADORA3,> 10 µM
same,IC50,ADRA1D,> 10 µM
same,IC50,ADRB1,> 10 µM
same,IC50,AVPR1A,> 10 µM
same,IC50,BB1,> 10 µM
same,IC50,DRD1,> 10 µM
same,IC50,HRH1,> 10 µM
same,IC50,OPRD1,> 10 µM
same,IC50,OPRM1,> 10 µM
same,Vd/F,[1]; I.V. 1 mg/kg,2.016 L/kg
same,bioavailability,"[1]; male, mouse, plasma, 10 mg/kg, ratio of oral AUC0-∞ to intravenous AUC0-∞",40.1%
same,AUC(0-inf),[1]; [2],2140 ng·h/mL
same,C0,[1]; [2],2370 ng/mL
same,MRT,[1]; [2],2.1 h
same,half-life,[1]; [2],3 h
same,AUC(0-t),[1]; [2],2140 ng·h/mL
same,AUC(0-inf),[1]; [3],8580 ng·h/mL
same,CL/F,[1]; [3],19.4 mL/min/kg
same,Cmax,[1]; [3],3850 ng/mL
same,MRT,[1]; [3],3.7 h
same,half-life,[1]; [3],5.4 h
same,AUC(0-t),[1]; [3],8400 ng·h/mL
same,Vd/F,"[1]; male, mouse, plasma, po, P.O. 10 mg/kg, read-out: Vd/F",9.08 L/kg
same,%TGI (tumor growth inhibition),"CT26 tumors; CT26, BALB/c mice, 37.5 mg/kg p.o. daily, 16 days",26.2%
same,%TGI (tumor growth inhibition),"CT26 tumors; CT26, BALB/c mice, 75 mg/kg p.o. daily, 16 days",47.4%
same,%TGI (tumor growth inhibition),"CT26 tumors; CT26, BALB/c mice, 150 mg/kg p.o. daily, 16 days",47.6%
same,anti-tumor efficacy compared with E7046,"CT26 tumors; CT26, BALB/c mice, both 150 mg/kg",greater efficacy than E7046
same,median survival time,"CT26 tumors; CT26, BALB/c, TP-16 75 mg/kg p.o. daily, anti-PD-1 50 μg i.p. twice weekly, 2 weeks, control 16 days",30 days
same,anti-tumor efficacy compared with celecoxib,"CT26 tumors; CT26, TP-16 75 mg/kg vs celecoxib 100 mg/kg, p.o. daily, 16 days",superior
same,%TGI,MC38 tumors,50.6%
same,%TGI,CT26-Luc tumors; CT26-Luc orthotopic model,76.22%
same,body weight of tumor-bearing mice,CT26-Luc tumors; at the given doses,no significant change
same,effect on cell viability,HCT116,did not affect the viability
same,effect on cell viability,HT29,did not affect the viability
same,IC50,AODRA1,> 10 µM
same,IC50,CB2,> 10 µM
same,IC50,HTR1B,> 10 µM
